Measured values reported in the supplement of paper PMC10307832.

Assays:
Experiment in all cases: relative viability (nuclei count vs DMSO), 5 days (fraction); higher = more cells survive
Sorafenib + Lapatinib = compound: CNC(=O)c1cc(Oc2ccc(NC(=O)Nc3ccc(Cl)c(C(F)(F)F)c3)cc2)ccn1 [Sorafenib] + CS(=O)(=O)CCNCc1ccc(-c2ccc3ncnc(Nc4ccc(OCc5cccc(F)c5)c(Cl)c4)c3c2)o1 [Lapatinib] (partner 2 µM)
Procedure, shortened: (§1)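 For relative viability, nuclei counts in treated wells were divided by those in vehicle wells. Lung cancer cell lines had been pin-tool dosed in 1536-well plates the day after seeding and cultured for 5 days, then fixed and stained in one step (final 0.05% Triton X-100, 1% formaldehyde, 1 ug/ml Hoechst) and imaged at 4×. Doses were one drug alone or a fixed anchor-drug dose plus five library-drug doses (not always all listed) in √10 steps, and values are duplicate-plate medians.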

Sorafenib + Dasatinib = compound: CNC(=O)c1cc(Oc2ccc(NC(=O)Nc3ccc(Cl)c(C(F)(F)F)c3)cc2)ccn1 [Sorafenib] + Cc1nc(Nc2ncc(C(=O)Nc3c(C)cccc3Cl)s2)cc(N2CCN(CCO)CC2)n1 [Dasatinib] (partner 0.075 µM)
Procedure, shortened: as §1

Sorafenib + Decitabine = compound: CNC(=O)c1cc(Oc2ccc(NC(=O)Nc3ccc(Cl)c(C(F)(F)F)c3)cc2)ccn1 [Sorafenib] + Nc1ncn([C@H]2C[C@H](O)[C@@H](CO)O2)c(=O)n1 [Decitabine] (partner 2 µM)
Procedure, shortened: as §1

Sorafenib + Vorinostat = compound: CNC(=O)c1cc(Oc2ccc(NC(=O)Nc3ccc(Cl)c(C(F)(F)F)c3)cc2)ccn1 [Sorafenib] + O=C(CCCCCCC(=O)Nc1ccccc1)NO [Vorinostat] (partner 1 µM)
Procedure, shortened: as §1

Sorafenib + Olaparib = compound: CNC(=O)c1cc(Oc2ccc(NC(=O)Nc3ccc(Cl)c(C(F)(F)F)c3)cc2)ccn1 [Sorafenib] + O=C(c1cc(Cc2n[nH]c(=O)c3ccccc23)ccc1F)N1CCN(C(=O)C2CC2)CC1 [Olaparib] (partner 8 µM)
Procedure, shortened: as §1

Cell Line | relative viability (Sorafenib + Lapatinib; first compound 0.08 µM) | relative viability (Sorafenib + Lapatinib; first compound 0.253 µM) | relative viability (Sorafenib + Lapatinib; first compound 2.53 µM) | relative viability (Sorafenib + Lapatinib; first compound 8 µM) | relative viability (Sorafenib + Dasatinib; first compound 0.08 µM) | relative viability (Sorafenib + Dasatinib; first compound 0.253 µM) | relative viability (Sorafenib + Dasatinib; first compound 2.53 µM) | relative viability (Sorafenib + Dasatinib; first compound 8 µM) | relative viability (Sorafenib + Decitabine; first compound 0.08 µM) | relative viability (Sorafenib + Decitabine; first compound 0.253 µM) | relative viability (Sorafenib + Decitabine; first compound 2.53 µM) | relative viability (Sorafenib + Vorinostat; first compound 0.08 µM) | relative viability (Sorafenib + Vorinostat; first compound 0.253 µM) | relative viability (Sorafenib + Vorinostat; first compound 2.53 µM) | relative viability (Sorafenib + Vorinostat; first compound 8 µM) | relative viability (Sorafenib + Olaparib; first compound 0.08 µM) | relative viability (Sorafenib + Olaparib; first compound 0.253 µM) | relative viability (Sorafenib + Olaparib; first compound 2.53 µM) | relative viability (Sorafenib + Olaparib; first compound 8 µM) | relative viability (Sorafenib + Decitabine; first compound 8 µM)
NCI-H1793 | 0.71 | 0.833 | 0.949 | 0.221 | 0.411 | 0.356 | 0.379 | 0.406 | 0.531 | 0.535 | 0.464 | 0.783 | 0.739 | 1.05 | 0.578 | 1.05 | 0.836 | 0.84 | 0.661 | 
NCI-H1915 | 0.932 | 0.879 | 0.943 | 0.951 | 0.326 | 0.327 | 0.402 | 0.273 | 0.26 | 0.254 | 0.268 | 0.444 | 0.364 | 0.355 | 0.582 | 0.283 | 0.226 | 0.266 | 0.271 | 0.247
NCI-H1944 | 0.881 | 0.763 | 0.912 | 0.796 | 0.213 | 0.229 | 0.245 | 0.206 |  | 0.47 | 0.482 | 0.539 | 0.497 | 0.626 | 0.417 | 0.391 | 0.379 | 0.382 | 0.35 | 0.38
NCI-H1975 | 1.04 | 0.835 | 1.02 | 0.448 | 0.423 | 0.305 | 0.374 | 0.314 | 0.431 | 0.383 | 0.365 | 0.788 | 0.787 | 0.72 | 0.436 | 0.936 | 0.779 | 0.669 | 0.353 | 0.353
NCI-H1993 | 0.893 | 0.782 |  | 0.78 | 0.547 | 0.302 | 0.554 | 0.384 |  | 0.478 | 0.665 | 0.973 | 0.726 | 1.1 | 0.633 | 1.12 | 1.2 | 1.22 | 0.751 | 0.489
NCI-H2009 | 0.884 | 0.812 | 0.968 | 0.47 | 0.346 | 0.23 | 0.325 | 0.16 | 0.375 | 0.394 | 0.315 | 0.703 | 0.666 | 0.699 | 0.719 | 0.621 | 0.533 | 0.524 | 0.556 | 0.227
NCI-H2023 |  | 0.738 | 0.82 | 0.244 | 0.681 | 0.485 | 0.601 | 0.275 | 0.235 | 0.232 | 0.22 | 0.954 | 0.571 | 0.599 | 0.339 | 0.45 | 0.477 | 0.465 | 0.115 | 0.189
NCI-H2085 |  | 0.761 | 0.858 | 0.717 | 0.311 | 0.271 | 0.26 | 0.237 | 0.608 | 0.566 | 0.573 | 0.852 | 0.795 | 1.01 | 0.78 | 0.763 | 0.851 | 1.01 | 0.761 | 0.49
NCI-H2087 | 0.958 | 0.711 | 1.06 | 0.611 | 1.03 | 0.744 | 0.684 | 0.154 | 0.304 | 0.231 | 0.172 | 0.615 | 0.545 | 0.474 | 0.209 | 0.717 | 0.566 | 0.501 | 0.116 | 0.107
NCI-H2126 | 0.766 | 0.642 | 0.808 | 0.792 | 0.735 | 0.533 | 0.652 | 0.501 | 0.631 | 0.524 | 0.562 | 0.88 | 0.747 | 0.828 | 0.799 | 0.935 | 0.851 | 0.96 | 0.913 | 0.643
NCI-H2170 | 0.279 | 0.294 | 0.349 | 0.39 | 0.771 | 0.485 | 0.6 | 0.518 | 0.493 | 0.411 | 0.486 | 0.842 | 0.665 | 0.856 | 0.576 | 0.63 | 0.577 | 0.556 | 0.365 | 0.437
NCI-H2347 | 0.945 | 0.83 | 0.965 | 0.968 | 0.74 | 0.351 | 0.351 | 0.308 | 0.592 | 0.628 | 0.675 | 0.694 | 0.543 | 0.524 | 0.52 | 0.675 | 0.502 | 0.503 | 0.519 | 0.594
NCI-H2405 | 1.26 | 0.967 | 1.09 | 0.784 | 0.217 | 0.183 | 0.2 | 0.214 | 0.754 | 0.726 | 0.737 | 1.09 | 0.801 | 1.09 | 0.706 | 0.891 | 0.852 | 0.887 | 0.807 | 0.577
NCI-H3122 | 1.05 | 0.987 | 1.02 | 1.01 | 0.92 | 0.422 | 0.715 | 0.311 | 0.384 | 0.467 | 0.375 | 1.03 | 0.932 |  | 0.846 | 0.639 | 0.611 | 0.6 | 0.53 | 0.189
PC-3 [JPC-3] | 0.499 | 0.439 | 0.502 | 0.537 | 1.03 | 0.936 |  |  | 0.835 | 0.763 | 0.837 | 0.886 | 0.555 | 1.1 | 0.883 | 1.18 | 1.12 | 1.18 | 0.944 | 0.826
PC-14 | 0.434 | 0.303 | 0.401 | 0.534 | 0.302 | 0.256 | 0.276 | 0.185 | 0.22 | 0.177 | 0.225 | 0.833 | 0.721 | 0.641 | 0.481 | 0.323 | 0.315 | 0.238 | 0.105 | 0.156
